Where “and” joins values, the source holds several entries; their conditions need not be identical. Equal values may be shown once.
Tested on: 5-HT, 5-HIAA, dopamine and HVA tissue levels
Assay: Monoamine and metabolite tissue levels after CIS (HPLC-ECD)
Format: in vivo, Cryptotis parva
Details: for increase in brainstem 5-HT tissue level vs vehicle: CIS 10 mg/kg i.p.; for frontal cortex 5-HIAA level: not significantly different from vehicle
Description: These parameters were used in our neurochemical studies. Prior to experimentation, shrews were habituated to the laboratory environment as described for the behavioral studies. […] Subgroups of each treatment were sacrificed by rapid decapitation at either 2 hr or 33 hr post-injection.
Brains were rapidly removed and dissected on an ice-cold petri dish, the frontal cortex and brainstem were immediately frozen on dry-ice and stored at […] until analysis. Likewise, each gut was rapidly removed and washed with ice-cold saline three times prior to sectioning into succeeding 2 cm portions starting from the end of the stomach (duodenal and jejunal sections, respectively), followed by rapid freezing as described above. Each frontal cortex, brainstem and intestinal sample was respectively homogenized (tissue tearer, setting 5 sec for 15 sec) in 1 ml, 2 ml, or 3 ml ice-cold 0.2 M perchloric acid respectively containing 0.3 M ethylenediamine-tetraacetic acid disodium (EDTA). A 0.1 ml portion of each homogenate was removed for protein analysis. The protein concentration was determined by the use of BCA protein assay kit (Pierce; Rockford, Ill.). Then, homogenates were centrifuged at 40,000 g for 30 min at 4° C. to precipitate protein. The supernatant was filtered through a 0.2 μm nylon filter in a microcentrifuge tube at 1,500 g for 10 min at 4° C. A 10 μl aliquot of each filtered supernatant was assayed for the presence of monoamines and their metabolites.
Monoamines and their metabolites were analyzed by high performance liquid chromatography with electrochemical detection (HPLC-ECD) based upon our established method (Darmani et al., 2003). Separation of 5-HT, dopamine and their corresponding metabolites (5-HIAA and HVA) from other electroactive compounds was achieved on a 10 cm×3.2 mm RP-C18 column (ODS 3 um packing; BAS Inc., W. Lafayette, Ind.) and a mobile phase containing 0.15 M chloroacetic acid, 0.12 M sodium hydroxide, 0.18 mM ethylenediamine-tetraacetic acid disodium (EDTA), 1.1 mM sodium octane sulfonic acid and 5% acetonitrile. The monoamines and their metabolites were separated and measured through the cited column via a Shumadzu L-ECD-6A detector, connected to a Shimadzu LC-10 AD pump and a C-R7Ae chromatopac integrator (Kyoto, Japan). The glassy carbon working electrode was set at a potential of 650 mV relative to an Ag/AgCl reference electrode. The detection limit for dopamine and 5-HT were 2 and 5 pg respectively, based on a signal to noise ratio of 3:1. Peak heights of unknowns were compared to the mean peak heights of a 200 pg standard solution (containing 5-HT, dopamine, 5-HIAA and HVA) which were run daily after every fifth tissue supernatant sample. The intestinal HVA concentrations could not be determined due to an unknown interfering peak in the gut tissue eluates.
When a significant dose and exposure interaction was found, then simple effects at a particular emesis phase was tested via a one-way ANOVA. Neurochemical data were initially analyzed by two-way analysis of variance (ANOVA) with drug dose (0 mg/kg and 10 mg/kg) and exposure time (2 hr and 33 hr) as factors. […] For each statistical test, a P value of<0.05 was necessary to achieve statistical significance.

[1] = CIS 0 and 10 mg/kg, 2 and 33 hour

N.N.[Cl][Pt][Cl] [CIS, cis-platinum(II)diamine dichloride]
brainstem dopamine levels [1]: no overall significant effect
duodenum dopamine levels [1]: no overall significant effect
frontal cortex serotonin levels [1]: no significant overall effect
duodenal tissue concentration of 5-HIAA (CIS 10 mg/kg): not significantly altered
increase in jejunal dopamine concentration (CIS 10 mg/kg at 33 hour vs 0 mg/kg control at 2 hour): 121%
increase in jejunal dopamine concentration (CIS 10 mg/kg at 33 hour vs 0 mg/kg control at 33 hour): 171%
frontal cortex HVA at 33 hour less than at 2 hour (CIS 10 mg/kg dose): 32.4%
jejunal 5-HT at 2 hour smaller than at 33 hours (CIS 10 mg/kg dose): 114.5%
brainstem 5-HT level at 33 hour greater than at 2 hour (CIS 10 mg/kg group): 33.9%
brainstem HVA at 33 hour greater than at 2 hour (CIS 10 mg/kg group): 37%
increase in brainstem 5-HT tissue level vs vehicle (2 hour): 68.2%
increase in brainstem 5-HT tissue level vs vehicle (33 hour): 25%
duodenal 5-HT concentrations (CIS 10 mg/kg, 2 and 33 hour): not significantly altered
frontal cortex dopamine tissue level vs control (CIS 10 mg/kg, 2 hour): significant increase
increase in brainstem 5-HIAA level vs vehicle (CIS 10 mg/kg, 2 hour): 43.8%
increase in brainstem HVA levels vs control (CIS 10 mg/kg, 2 hour): 65.5%
increase in jejunal 5-HIAA concentration vs control (CIS 10 mg/kg, 2 hour): 32.4%
reduction of jejunal 5-HT tissue concentration vs control (CIS 10 mg/kg, 2 hour): 49.1%
frontal cortex 5-HIAA level (CIS 10 mg/kg, 2 hour): 1.1±0.07
decrease in frontal cortex HVA concentration vs vehicle (CIS 10 mg/kg, 33 hour): 35.9%
increase in brainstem 5-HIAA level vs vehicle (CIS 10 mg/kg, 33 hour): 26.7%
increase of jejunal 5-HT tissue concentration vs control (CIS 10 mg/kg, 33 hour): ~50% and 41.8%
frontal cortex 5-HIAA level (CIS 10 mg/kg, 33 hour): 0.91±0.11
increase in brainstem HVA levels vs control (CIS 10 mg/kg, 33 hours): 27.7%
duodenal 5-HT at 33 hours greater than at 2 hour (CIS-treated animals): 48.5%
brainstem 5-HIAA at 33 hour greater than at 2 hour (CIS-treated group): 49.2%

Reference: US20110093959A1, “CRYPTOTIS PARVA SCREENING MODEL FOR ANTIEMETIC POTENTIAL” (priority 2008, published 2011)
